The assay deals with human Cat S (Homo sapiens, UniProt P25774). Briefly: Cathepsin enzyme inhibition assay (fluorogenic peptide substrate cleavage). The following applies: human Cat S 1 nM; substrate Z-Val-Val-Arg-AMC 20 μM; pH 6.5; fluorescence over 20 minutes. It is filed as biochemical. The procedure, abridged: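 Fluorogenic cleavage of Z-Val-Val-Arg-AMC (20 μM) by 1 nM enzyme in 100 mM potassium phosphate pH 6.5, 5 mM EDTA, 5 mM DTT, 0.001% Triton X-100. Reaction started with substrate; fluorescence (ex 360/em 465 nm) followed over 20 minutes. IC50 by standard methods.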
Sequence of human Cat S (P25774 115-331): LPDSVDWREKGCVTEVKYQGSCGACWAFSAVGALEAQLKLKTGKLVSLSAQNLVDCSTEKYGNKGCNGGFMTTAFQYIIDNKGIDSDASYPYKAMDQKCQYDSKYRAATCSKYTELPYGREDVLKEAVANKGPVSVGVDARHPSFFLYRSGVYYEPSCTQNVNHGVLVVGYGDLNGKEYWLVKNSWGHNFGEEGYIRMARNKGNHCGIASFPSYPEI
In general, IC50 refers to the midpoint of a concentration-inhibition curve. Read a low IC50 as greater potency in that assay. Turning to `N#CC1(NC(=O)[C@@H]2C[C@@H](S(=O)(=O)c3ccc(N4CCN(CC(F)(F)F)CC4)cc3C(F)(F)F)C[C@H]2OC2CCCC2)CC1` (racemic) [Example 230, (1R,2R,4R) and (1S,2S,4S)-2-Cyclopentyloxy-4-{4-[4-(2,2,2-trifluoro-ethyl)-piperazin-1-yl]-2-trifluoromethyl-benzenesulfonyl}-cyclopentanecarboxylic acid (1-cyano-cyclopropyl)-amide], the IC50 amounted to 0.0275 nM.

For `N#CC1(NC(=O)[C@@H]2C[C@@H](S(=O)(=O)c3ccccc3C(F)(F)F)C[C@H]2Oc2ccccc2)CC1` (racemic) [Example 231, (1R,2R,4R) and (1S,2S,4S)-2-Phenoxy-4-(2-trifluoromethyl-benzenesulfonyl)-cyclopentanecarboxylic acid (1-cyano-cyclopropyl)-amide], the IC50 was 1.25 nM.

In turn, `N#CC1(NC(=O)[C@@H]2C[C@@H](S(=O)(=O)c3ccccc3C(F)(F)F)C[C@H]2OCc2ccc(Cl)cc2)CC1` (racemic) [Example 232, (1R,2R,4R) and (1S,2S,4S)-2-(4-Chloro-benzyloxy)-4-(2-trifluoromethyl-benzenesulfonyl)-cyclopentanecarboxylic acid (1-cyano-cyclopropyl)-amide] gave an IC50 of 1.85 nM.

In turn, `N#CC1(NC(=O)[C@@H]2C[C@@H](S(=O)(=O)c3ccc(Cl)cc3Cl)C[C@H]2OCc2ccc(Cl)cc2)CC1` (racemic) [Example 233, (1R,2R,4R) and (1S,2S,4S)-2-(4-Chloro-benzyloxy)-4-(2,4-dichloro-benzenesulfonyl)-cyclopentanecarboxylic acid (1-cyano-cyclopropyl)-amide] had an IC50 of 10.5 nM.

As to `CN1CCC(C#N)(NC(=O)[C@@H]2C[C@@H](S(=O)(=O)c3ccc(Cl)cc3Cl)C[C@H]2OCc2ccc(Cl)cc2)CC1` (racemic) [Example 234, (1R,2R,4R) and (1S,2S,4S)-2-(4-Chloro-benzyloxy)-4-(2,4-dichloro-benzenesulfonyl)-cyclopentanecarboxylic acid (4-cyano-1-methyl-piperidin-4-yl)-amide], the IC50 is 19 nM.

`CN1CCC(C#N)(NC(=O)[C@@H]2C[C@@H](S(=O)(=O)c3ccccc3C(F)(F)F)C[C@H]2OCc2ccc(Cl)cc2)CC1` (racemic) [Example 235, (1R,2R,4R) and (1S,2S,4S)-2-(4-Chloro-benzyloxy)-4-(2-trifluoromethyl-benzenesulfonyl)-cyclopentanecarboxylic acid (4-cyano-1-methyl-piperidin-4-yl)-amide] had an IC50 of 7.3 nM.

With `CO[C@@H]1C[C@H](S(=O)(=O)c2ccc(-c3cnn(C)c3)cc2C(F)(F)F)C[C@H]1C(=O)NC1(C#N)CCN(C)CC1` (racemic) [Example 236, (1R,2R,4R) and (1S,2S,4S)-2-Methoxy-4-[4-(1-methyl-1H-pyrazol-4-yl)-2-trifluoromethyl-benzenesulfonyl]-cyclopentanecarboxylic acid (4-cyano-1-methyl-piperidin-4-yl)-amide], the half-inhibitory concentration (IC50) is 1.8 nM.

With `CCOC(=O)N1CCC(C#N)(NC(=O)[C@@H]2C[C@@H](S(=O)(=O)c3ccc(-c4cnn(C)c4)cc3C(F)(F)F)C[C@H]2OC)CC1` (racemic) [Example 237, 4-Cyano-4-({(1R,2R,4R) and (1S,2S,4S)-2-methoxy-4-[4-(1-methyl-1H-pyrazol-4-yl)-2-trifluoromethyl-benzenesulfonyl]-cyclopentanecarbonyl}-amino)-piperidine-1-carboxylic acid ethyl ester], half-maximal inhibition (IC50) required 2.2 nM.

`CCN1CCC(C#N)(NC(=O)[C@@H]2C[C@@H](S(=O)(=O)c3ccc(-c4cnn(C)c4)cc3C(F)(F)F)C[C@H]2OC)CC1` (racemic) [Example 238, (1R,2R,4R) and (1S,2S,4S)-2-Methoxy-4-[4-(1-methyl-1H-pyrazol-4-yl)-2-trifluoromethyl-benzenesulfonyl]-cyclopentanecarboxylic acid (4-cyano-1-ethyl-piperidin-4-yl)-amide] registered an IC50 of 2.35 nM.

With `CCN1CCC(C#N)(NC(=O)[C@@H]2C[C@@H](S(=O)(=O)c3ccccc3C(F)(F)F)C[C@H]2OCc2ccc(Cl)cc2)CC1` (racemic) [Example 239, (1R,2R,4R) and (1S,2S,4S)-2-(4-Chloro-benzyloxy)-4-(2-trifluoromethyl-benzenesulfonyl)-cyclopentanecarboxylic acid (4-cyano-1-ethyl-piperidin-4-yl)-amide], the IC50 amounted to 6.25 nM.

Compound `CCN1CCC(C#N)(NC(=O)[C@@H]2C[C@@H](S(=O)(=O)c3ccc(Cl)cc3Cl)C[C@H]2OCc2ccc(Cl)cc2)CC1` (racemic) [Example 240, (1R,2R,4R) and (1S,2S,4S)-2-(4-Chloro-benzyloxy)-4-(2,4-dichloro-benzenesulfonyl)-cyclopentanecarboxylic acid (4-cyano-1-ethyl-piperidin-4-yl)-amide] had an IC50 of 25.5 nM.

`CCOC(=O)N1CCC(C#N)(NC(=O)[C@@H]2C[C@@H](S(=O)(=O)c3ccccc3C(F)(F)F)C[C@H]2OCc2ccc(Cl)cc2)CC1` (racemic) [Example 241, 4-{[(1R,2R,4R) and (1S,2S,4S)-2-(4-Chloro-benzyloxy)-4-(2-trifluoromethyl-benzenesulfonyl)-cyclopentanecarbonyl]-amino}-4-cyano-piperidine-1-carboxylic acid ethyl ester] gave an IC50 of 12 nM.

Compound `CCOC(=O)N1CCC(C#N)(NC(=O)[C@@H]2C[C@@H](S(=O)(=O)c3ccc(Cl)cc3Cl)C[C@H]2OCc2ccc(Cl)cc2)CC1` (racemic) [Example 242, 4-{[(1R,2R,4R) and (1S,2S,4S)-2-(4-Chloro-benzyloxy)-4-(2,4-dichloro-benzenesulfonyl)-cyclopentanecarbonyl]-amino}-4-cyano-piperidine-1-carboxylic acid ethyl ester] showed an IC50 of 92 nM.

The compound `N#CC1(NC(=O)[C@@H]2C[C@@H](S(=O)(=O)c3ccccc3Cl)C[C@H]2Oc2ccc(Cl)cc2)CC1` (racemic) [Example 243, (1R,2R,4R) and (1S,2S,4S)-4-(2-Chloro-benzenesulfonyl)-2-(4-chloro-phenoxy)-cyclopentanecarboxylic acid (1-cyano-cyclopropyl)-amide] gave an IC50 of 1.45 nM.

As to `CC(C)(O[C@@H]1C[C@H](S(=O)(=O)c2ccccc2Cl)C[C@H]1C(=O)NC1(C#N)CC1)c1ccc(Cl)cc1` (racemic) [Example 244, (1R,2R,4R) and (1S,2S,4S)-2-(2-(4-chlorophenyl)propan-2-yloxy)-4-(2-chlorophenylsulfonyl)-N-(1-cyanocyclopropyl)cyclopentanecarboxamide], the IC50 is 14.7 nM.

For `Cc1ccc(C(C)(C)O[C@@H]2C[C@H](S(=O)(=O)c3ccccc3Cl)C[C@H]2C(=O)NC2(C#N)CC2)cc1` (racemic) [Example 245, (1R,2R,4R) and (1S,2S,4S)-4-(2-chlorophenylsulfonyl)-N-(1-cyanocyclopropyl)-2-(2-p-tolylpropan-2-yloxy)cyclopentanecarboxamide], the IC50 turned out to be 11.4 nM.

`COCc1cn(-c2ccc(S(=O)(=O)[C@@H]3C[C@H](OC)[C@@H](C(=O)NC4(C#N)CC4)C3)c(C(F)(F)F)c2)nn1` (racemic) [Example 246, (1S,2S,4S) and (1R,2R,4R)-2-Methoxy-4-[4-(4-methoxymethyl-[1,2,3]triazol-1-yl)-2-trifluoromethyl-benzenesulfonyl]-cyclopentanecarboxylic acid (1-cyano-cyclopropyl)-amide] yielded a half-inhibitory concentration (IC50) of 1.25 nM.

Compound `N#CC1(NC(=O)[C@@H]2C[C@@H](S(=O)(=O)c3ccccc3Cl)C[C@H]2OCc2ccc(C(F)(F)F)cc2)CC1` (racemic) [Example 247, (1R,2R,4R) and (1S,2S,4S)-4-(2-chlorophenylsulfonyl)-N-(1-cyanocyclopropyl)-2-(4-(trifluoromethyl)benzyloxy)cyclopentanecarboxamide] returned a concentration for half-maximal inhibition (IC50) of 5.98 nM.

`CS(=O)(=O)c1cc(Cl)ccc1CO[C@@H]1C[C@H](S(=O)(=O)c2ccccc2Cl)C[C@H]1C(=O)NC1(C#N)CC1` (racemic) [Example 248, (1R,2R,4R) and (1S,2S,4S)-4-(2-Chloro-benzenesulfonyl)-2-(4-chloro-2-methanesulfonyl-benzyloxy)-cyclopentanecarboxylic acid (1-cyano-cyclopropyl)-amide] gave a 50% inhibitory concentration (IC50) of 3.5 nM.

The compound `N#CC1(NC(=O)[C@@H]2C[C@@H](S(=O)(=O)c3ccccc3Cl)C[C@H]2OCc2ccc(Cl)c(F)c2)CC1` (racemic) [Example 249, (1R,2R,4R) and (1S,2S,4S)-4-(2-Chloro-benzenesulfonyl)-2-(4-chloro-3-fluoro-benzyloxy)-cyclopentanecarboxylic acid (1-cyano-cyclopropyl)-amide] displayed an IC50 of 6.95 nM.

The compound `N#CC1(NC(=O)[C@@H]2C[C@@H](S(=O)(=O)c3ccccc3Cl)C[C@H]2OCc2ccc(Cl)c(Cl)c2)CC1` (racemic) [Example 250, (1R,2R,4R) and (1S,2S,4S)-4-(2-Chloro-benzenesulfonyl)-2-(3,4-dichloro-benzyloxy)-cyclopentanecarboxylic acid (1-cyano-cyclopropyl)-amide] returned an IC50 of 62.5 nM.

`N#CC1(NC(=O)[C@@H]2C[C@@H](S(=O)(=O)c3ccccc3Cl)C[C@H]2OCc2c(F)cc(Cl)cc2F)CC1` (racemic) [Example 251, (1R,2R,4R) and (1S,2S,4S)-4-(2-Chloro-benzenesulfonyl)-2-(4-chloro-2,6-difluoro-benzyloxy)-cyclopentanecarboxylic acid (1-cyano-cyclopropyl)-amide]: the IC50 was 6.11 nM.

With `N#CC1(NC(=O)[C@@H]2C[C@@H](S(=O)(=O)c3ccccc3Cl)C[C@H]2OCc2ccc(Cl)cc2F)CC1` (racemic) [Example 252, (1R,2R,4R) and (1S,2S,4S)-4-(2-Chloro-benzenesulfonyl)-2-(4-chloro-2-fluoro-benzyloxy)-cyclopentanecarboxylic acid (1-cyano-cyclopropyl)-amide], the IC50 is 4.99 nM.

For the origin of these results see patent publication US20100317647A1 (priority 2009, published 2010).
